The text below walks through data of US20210386705A1, “APPLICATION OF CHIGLITAZAR AND RELATED COMPOUNDS THEREOF” (SHENZHEN CHIPSCREEN BIOSCIENCES CO., LTD., priority 2018, published 2021).

Assay [1] addresses T1, PPARδ (Homo sapiens, UniProt Q03181).
T1 construct: expressed in transfected cells; host or cells: human hepatocyte cell line L-02
T1 sequence (Q03181 1-441): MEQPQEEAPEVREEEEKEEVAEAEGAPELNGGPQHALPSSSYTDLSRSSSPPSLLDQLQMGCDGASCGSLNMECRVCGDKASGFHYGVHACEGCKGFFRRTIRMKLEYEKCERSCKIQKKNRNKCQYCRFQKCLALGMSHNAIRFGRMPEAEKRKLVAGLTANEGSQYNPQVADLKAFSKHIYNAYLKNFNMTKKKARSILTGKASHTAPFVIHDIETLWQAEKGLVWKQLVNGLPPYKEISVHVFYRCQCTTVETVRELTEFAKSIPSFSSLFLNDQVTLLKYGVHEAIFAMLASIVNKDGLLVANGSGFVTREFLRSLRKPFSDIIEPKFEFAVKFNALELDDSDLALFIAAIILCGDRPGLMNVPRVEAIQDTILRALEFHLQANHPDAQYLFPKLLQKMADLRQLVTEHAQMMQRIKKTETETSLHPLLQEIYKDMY
T1 sequence (P19793 1-462 partner): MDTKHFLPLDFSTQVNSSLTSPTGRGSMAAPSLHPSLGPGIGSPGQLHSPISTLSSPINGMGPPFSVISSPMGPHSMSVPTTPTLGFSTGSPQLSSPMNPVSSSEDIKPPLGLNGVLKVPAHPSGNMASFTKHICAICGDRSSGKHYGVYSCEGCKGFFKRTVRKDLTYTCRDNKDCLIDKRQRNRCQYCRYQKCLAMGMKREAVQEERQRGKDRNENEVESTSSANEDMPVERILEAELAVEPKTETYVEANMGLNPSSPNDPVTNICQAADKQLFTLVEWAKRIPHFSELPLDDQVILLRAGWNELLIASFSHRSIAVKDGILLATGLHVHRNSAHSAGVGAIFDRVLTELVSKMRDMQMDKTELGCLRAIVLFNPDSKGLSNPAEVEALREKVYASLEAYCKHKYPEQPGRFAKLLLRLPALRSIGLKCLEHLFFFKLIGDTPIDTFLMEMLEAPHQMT
The assay is described as follows: PPAR reporter gene model in L-02 cells, PPARδ. Type of assay: cell-based. The note with it: luciferase reporter, 24 hours drug, read-out: Half-maximal activation concentration of reporter gene AC50, PPARδ. The protocol:
The PPAR reporter gene model comprises three subtypes of expression plasmids, RXR expression plasmid, plasmid with luciferase reporter gene, and GFP expression plasmid as an external reference. The human hepatocyte cell line L-02 cells were seeded into 96-well plates at the density of 15,000 cells/well with about 50% plating rate, followed by culturing for 24 hours at 37° C. […] The fluorescence intensity (at wavelength 485-527 nm) of green fluorescent protein (GFP) in each well was firstly detected as an internal standard by a fluorescence detector, and then 30 μL of luciferase substrates (Promega, E151A) were added to each well. After slightly shaking to mix well, the […] were detected. The relative reporter gene activation intensity was obtained by the ratio of the fluorescence detection signal of the drugs to be tested to that of the solvent control, with both the signals normalized to the internal standard GFP signal. The half-maximal activation (AC50) of the drugs to be tested was calculated with the activity at various concentrations (shown in Table 1).
A general note: A reporter such as luciferase makes a cellular process visible.

Assay [2] deals with α-smooth muscle actin (α-SMA). As to the kind of experiment: TGF-β1-activated hepatic stellate cells, α-SMA gene expression (qPCR). Format: cell-based, human. The note with it: TGF-β1 stimulation, 24 hours; FIG. 4. On the procedure: Human primary hepatic stellate cells were seeded into 6-well plates with complete growth media (Stellate Cell Medium) for 24 hours, and then the culture media were replaced by fresh media (free of serum and growth factors) containing TGF-β1 and the compound to be tested (sodium chiglitazar) or the reference compound PPARγ/α dual agonist pioglitazone or PPARα/δ dual agonist GFT505 (both purchased from Selleck), and the cells were cultured for 24 hours. The total RNAs of the samples were extracted, and reverse transcription reaction was performed. Thereafter, a conventional PCR amplification kit (FastStart Universal SYBR@ Green Master (ROX), Roche) was used for further detection, where the PCR primers were designed with reference to the NCBI standard mRNA sequence of the target genes (Table 2). PCR reaction and detection were carried out on the ABI StepOnePlus real-time quantitative PCR instrument. By calculating the relative amount of transcripts was calculate by “Delta-Delta CT method” (Livak et al. Methods 2001), and using ACTB as the housekeeping gene for normalization and the average data of untreated human hepatic stellate cells as a reference control, the relative change folds of gene expression were obtained (FIG. 4).
Background: Real-time PCR tracks product formation cycle by cycle.

Assay [3] concerns THP-1 cells. The assay is described as follows: Inflammatory factor gene expression (MCP-1, TNFα) in PMA-activated THP-1 cells (qPCR). Type of assay: cell-based, human. The note with it: 6 hours, FIG. 5. The protocol:
Human acute monocytic leukemia mononuclear cell line (THP-1) cells were activated by a certain concentration of phorbol esters (Phorbol-12-myristate-13-acetate, PMA) and differentiated into macrophages. Through this cell model, the activating effects of sodium chiglitazar and other compounds on the expression of THP-1 related inflammatory factors were detected.
THP-1 cells were seeded into 6-well plates with complete growth media for 24 hours, and then the culture media were replaced by fresh media containing PMA and the compound to be tested (sodium chiglitazar) or the reference compound GFT505 (PPARα/δ dual agonist), and the cells were cultured for 6 hours. The total RNAs of the samples were extracted, and cDNA templates were synthesized by reverse transcription reaction (Transcriptor First Strand cDNA Synthesis Kit, Roche). Thereafter, a conventional PCR amplification kit (FastStart Universal SYBR@ Green Master (ROX), Roche) was used for semi-quantitative gene expression detection on the ABI StepOnePlus real-time quantitative PCR instrument.
The relative expression change of the target genes was obtained by using the internal reference β-actin gene (ACTB) as the standard for normalization, compared with the untreated cell samples, and the relative expression change folds were calculated (FIG. 5).

In the case of `O=C(c1ccc(F)cc1)c1ccccc1N[C@@H](Cc1ccc(OCCn2c3ccccc3c3ccccc32)cc1)C(=O)[O-].[Na+]` [sodium chiglitazar], the AC50 in assay [1] was found to be 708 nM. Also, the “Effect on expression of α-smooth muscle actin” value in assay [2] is given as “significantly inhibited”. In addition, in assay [3], the “Inhibition of phorbol esters-mediated activation of monocyte and related gene expression” value is listed as “significantly inhibit”.
